From PubChem BioAssay (NCI)
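1) Cells in 96-well plates. 2) Compound, 48 h, 5 concentrations. 3) Linear interpolation between surrounding doses. 4) Unreached endpoint = highest concentration. TGI denotes the concentration required for complete inhibition of growth.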

test system: A549 NSCLC; assay: inhibition of tumour cell growth, NCI panel, 48 h

Structure (SMILES) | TGI
COc1cc(/C=C2/SC(c3ccccc3)N(c3cccc(NC(C)=O)c3)C2=O)cc(OC)c1OC (configuration not stated) | > 100 µM
CC(=O)Oc1ccc2[nH]c3c(C)c4cccc-4ccc3c2c1 | 4.7 µM

test system: SR leukemia; assay: inhibition of tumour cell growth, NCI panel, 48 h

Structure (SMILES) | TGI
CC(C)/C(Cl)=N\OC(=O)Nc1ccc(F)cc1 | 4.33 µM
COc1cc(N2C(=O)C(=O)C3(CCCCC3)C2=O)cc(OC)c1OC | > 100 µM
Cc1c(S(=O)(=O)/N=C(\NN)Nc2ccc(Cl)cc2)sc2ccc(Cl)cc12 | 65.1 µM
COc1cc(/C=C2/SC(c3ccccc3)N(c3cccc(NC(C)=O)c3)C2=O)cc(OC)c1OC (configuration not stated) | > 100 µM
CC(=O)Oc1ccc2[nH]c3c(C)c4cccc-4ccc3c2c1 | 34.6 µM

test system: OVCAR-8 ovarian; assay: inhibition of tumour cell growth, NCI panel, 48 h

Structure (SMILES) | TGI
CC(C)/C(Cl)=N\OC(=O)Nc1ccc(F)cc1 | 25.6 µM
COc1cc(N2C(=O)C(=O)C3(CCCCC3)C2=O)cc(OC)c1OC | > 100 µM
Cc1c(S(=O)(=O)/N=C(\NN)Nc2ccc(Cl)cc2)sc2ccc(Cl)cc12 | 34.7 µM
COc1cc(/C=C2/SC(c3ccccc3)N(c3cccc(NC(C)=O)c3)C2=O)cc(OC)c1OC (configuration not stated) | > 100 µM
CC(=O)Oc1ccc2[nH]c3c(C)c4cccc-4ccc3c2c1 | 4.63 µM

test system: IGROV1 ovarian; assay: inhibition of tumour cell growth, NCI panel, 48 h

Structure (SMILES) | TGI
CC(C)/C(Cl)=N\OC(=O)Nc1ccc(F)cc1 | 31.7 µM
Cc1c(S(=O)(=O)/N=C(\NN)Nc2ccc(Cl)cc2)sc2ccc(Cl)cc12 | 30.4 µM
CC(=O)Oc1ccc2[nH]c3c(C)c4cccc-4ccc3c2c1 | 3.2 µM

test system: SK-OV-3 ovarian; assay: inhibition of tumour cell growth, NCI panel, 48 h

Structure (SMILES) | TGI
CC(C)/C(Cl)=N\OC(=O)Nc1ccc(F)cc1 | 31.7 µM
COc1cc(N2C(=O)C(=O)C3(CCCCC3)C2=O)cc(OC)c1OC | > 100 µM
Cc1c(S(=O)(=O)/N=C(\NN)Nc2ccc(Cl)cc2)sc2ccc(Cl)cc12 | 35.9 µM
COc1cc(/C=C2/SC(c3ccccc3)N(c3cccc(NC(C)=O)c3)C2=O)cc(OC)c1OC (configuration not stated) | > 100 µM
CC(=O)Oc1ccc2[nH]c3c(C)c4cccc-4ccc3c2c1 | 4.28 µM

test system: EKVX NSCLC; assay: inhibition of tumour cell growth, NCI panel, 48 h

Structure (SMILES) | TGI
CC(C)/C(Cl)=N\OC(=O)Nc1ccc(F)cc1 | 11.3 µM
COc1cc(N2C(=O)C(=O)C3(CCCCC3)C2=O)cc(OC)c1OC | > 100 µM
Cc1c(S(=O)(=O)/N=C(\NN)Nc2ccc(Cl)cc2)sc2ccc(Cl)cc12 | 27.2 µM
COc1cc(/C=C2/SC(c3ccccc3)N(c3cccc(NC(C)=O)c3)C2=O)cc(OC)c1OC (configuration not stated) | > 100 µM
CC(=O)Oc1ccc2[nH]c3c(C)c4cccc-4ccc3c2c1 | 4.21 µM

test system: NCI-H522 lung; assay: inhibition of tumour cell growth, NCI panel, 48 h

Structure (SMILES) | TGI
CC(C)/C(Cl)=N\OC(=O)Nc1ccc(F)cc1 | 3.02 µM
COc1cc(N2C(=O)C(=O)C3(CCCCC3)C2=O)cc(OC)c1OC | > 100 µM
Cc1c(S(=O)(=O)/N=C(\NN)Nc2ccc(Cl)cc2)sc2ccc(Cl)cc12 | 32.5 µM
COc1cc(/C=C2/SC(c3ccccc3)N(c3cccc(NC(C)=O)c3)C2=O)cc(OC)c1OC (configuration not stated) | 73.6 µM
CC(=O)Oc1ccc2[nH]c3c(C)c4cccc-4ccc3c2c1 | 3.86 µM

test system: 786-0 renal; assay: inhibition of tumour cell growth, NCI panel, 48 h

Structure (SMILES) | TGI
CC(C)/C(Cl)=N\OC(=O)Nc1ccc(F)cc1 | 9.55 µM
COc1cc(N2C(=O)C(=O)C3(CCCCC3)C2=O)cc(OC)c1OC | > 100 µM
Cc1c(S(=O)(=O)/N=C(\NN)Nc2ccc(Cl)cc2)sc2ccc(Cl)cc12 | 31.5 µM
COc1cc(/C=C2/SC(c3ccccc3)N(c3cccc(NC(C)=O)c3)C2=O)cc(OC)c1OC (configuration not stated) | > 100 µM
CC(=O)Oc1ccc2[nH]c3c(C)c4cccc-4ccc3c2c1 | 3.36 µM

test system: SF-268 CNS; assay: inhibition of tumour cell growth, NCI panel, 48 h

Structure (SMILES) | TGI
CC(C)/C(Cl)=N\OC(=O)Nc1ccc(F)cc1 | 56.1 µM
COc1cc(N2C(=O)C(=O)C3(CCCCC3)C2=O)cc(OC)c1OC | > 100 µM
Cc1c(S(=O)(=O)/N=C(\NN)Nc2ccc(Cl)cc2)sc2ccc(Cl)cc12 | 33.8 µM
COc1cc(/C=C2/SC(c3ccccc3)N(c3cccc(NC(C)=O)c3)C2=O)cc(OC)c1OC (configuration not stated) | > 100 µM
CC(=O)Oc1ccc2[nH]c3c(C)c4cccc-4ccc3c2c1 | 4.19 µM

test system: UO-31 renal; assay: inhibition of tumour cell growth, NCI panel, 48 h

Structure (SMILES) | TGI
CC(C)/C(Cl)=N\OC(=O)Nc1ccc(F)cc1 | 10.5 µM
COc1cc(N2C(=O)C(=O)C3(CCCCC3)C2=O)cc(OC)c1OC | > 100 µM
Cc1c(S(=O)(=O)/N=C(\NN)Nc2ccc(Cl)cc2)sc2ccc(Cl)cc12 | 33.1 µM
COc1cc(/C=C2/SC(c3ccccc3)N(c3cccc(NC(C)=O)c3)C2=O)cc(OC)c1OC (configuration not stated) | > 100 µM
CC(=O)Oc1ccc2[nH]c3c(C)c4cccc-4ccc3c2c1 | 3.19 µM

test system: CCRF-CEM leukemia; assay: inhibition of tumour cell growth, NCI panel, 48 h

Structure (SMILES) | TGI
CC(C)/C(Cl)=N\OC(=O)Nc1ccc(F)cc1 | 3.62 µM
COc1cc(N2C(=O)C(=O)C3(CCCCC3)C2=O)cc(OC)c1OC | > 100 µM
Cc1c(S(=O)(=O)/N=C(\NN)Nc2ccc(Cl)cc2)sc2ccc(Cl)cc12 | > 100 µM

test system: K-562 leukemia; assay: inhibition of tumour cell growth, NCI panel, 48 h

Structure (SMILES) | TGI
CC(C)/C(Cl)=N\OC(=O)Nc1ccc(F)cc1 | 3.45 µM
COc1cc(N2C(=O)C(=O)C3(CCCCC3)C2=O)cc(OC)c1OC | > 100 µM
Cc1c(S(=O)(=O)/N=C(\NN)Nc2ccc(Cl)cc2)sc2ccc(Cl)cc12 | > 100 µM
COc1cc(/C=C2/SC(c3ccccc3)N(c3cccc(NC(C)=O)c3)C2=O)cc(OC)c1OC (configuration not stated) | > 100 µM
CC(=O)Oc1ccc2[nH]c3c(C)c4cccc-4ccc3c2c1 | 11.5 µM

test system: SK-MEL-5 melanoma; assay: inhibition of tumour cell growth, NCI panel, 48 h

Structure (SMILES) | TGI
CC(C)/C(Cl)=N\OC(=O)Nc1ccc(F)cc1 | 26.4 µM
COc1cc(N2C(=O)C(=O)C3(CCCCC3)C2=O)cc(OC)c1OC | > 100 µM
Cc1c(S(=O)(=O)/N=C(\NN)Nc2ccc(Cl)cc2)sc2ccc(Cl)cc12 | 33.4 µM
COc1cc(/C=C2/SC(c3ccccc3)N(c3cccc(NC(C)=O)c3)C2=O)cc(OC)c1OC (configuration not stated) | > 100 µM
CC(=O)Oc1ccc2[nH]c3c(C)c4cccc-4ccc3c2c1 | 3.95 µM

test system: HT29 colon; assay: inhibition of tumour cell growth, NCI panel, 48 h

Structure (SMILES) | TGI
CC(C)/C(Cl)=N\OC(=O)Nc1ccc(F)cc1 | 4.6 µM
COc1cc(N2C(=O)C(=O)C3(CCCCC3)C2=O)cc(OC)c1OC | > 100 µM
Cc1c(S(=O)(=O)/N=C(\NN)Nc2ccc(Cl)cc2)sc2ccc(Cl)cc12 | 30.7 µM
COc1cc(/C=C2/SC(c3ccccc3)N(c3cccc(NC(C)=O)c3)C2=O)cc(OC)c1OC (configuration not stated) | > 100 µM
CC(=O)Oc1ccc2[nH]c3c(C)c4cccc-4ccc3c2c1 | 4.18 µM

test system: SF-539 CNS; assay: inhibition of tumour cell growth, NCI panel, 48 h

Structure (SMILES) | TGI
CC(C)/C(Cl)=N\OC(=O)Nc1ccc(F)cc1 | 32.8 µM
COc1cc(N2C(=O)C(=O)C3(CCCCC3)C2=O)cc(OC)c1OC | > 100 µM
Cc1c(S(=O)(=O)/N=C(\NN)Nc2ccc(Cl)cc2)sc2ccc(Cl)cc12 | 31.5 µM
COc1cc(/C=C2/SC(c3ccccc3)N(c3cccc(NC(C)=O)c3)C2=O)cc(OC)c1OC (configuration not stated) | > 100 µM
